Experiment in all cases: Protocol A: agar deposit test, clarification zone
Holding throughout (assay type): cell-based

In one experiment the test system is Staphylococcus aureus. The note with it: S. aureus. The method, then: (§1) The culture medium used was a mixture of 21 g/L of Muller-Hinton broth and 10 g/L of agar in water. This mixture was stirred and then left to boil. Next, a step of autoclaving of this mixture, for 30 minutes, was desired in this embodiment so as to sterilize it before any manipulation. This culture medium was poured hot into Petri dishes and then left to cool.
(§2) 5 mg of each modified sugar were dissolved in 1 mL of DMSO. Twofold serial dilution with DMSO was then performed using the stock solution, so as to obtain concentrations of 2.5 g/L, 1.25 g/L, 0.625 g/L and 0.3125 g/L.
(§3) The bacterial strains used were Pseudomonas aeruginosa, Escherichia Coli, Enterococcus faecium and Staphylococcus aureus, and also the fungal strain Candida albicans. 10^6 bacteria were taken and then transferred into 0.9% NaCl solution. Each Petri dish, containing Muller-Hinton medium, was flooded with a different bacterial suspension.
(§4) After allowing the bacterial suspensions to dry on the agar, 10 μL of each test solution, and at various concentrations, were deposited on the surface of the agar flooded with the bacterial suspension. 10 μL of DMSO were placed in each Petri dish as a negative control.
(§5) The positive controls used were disks soaked with ampicillin for Escherichia coli and Enterococcus faecium, ceftazidime disks for Pseudomonas aeruginosa and vancomycin disks for Staphylococcus aureus.
(§6) After drying, the Petri dishes were finally incubated at 37° C. in an oven, for 24 hours. The antibacterial activity was evaluated by measuring the clarification zone in millimeters around the point of deposition of the various test solutions.

A further experiment relates to Pseudomonas aeruginosa. The note with it: P. aeruginosa; for inhibitory activity on growth (in words): text summary of protocol A. The method, then:
as §1, §2, §3, §4, §5, §6

In a further experiment the test system is Escherichia Coli. The note with it: E. coli; for inhibitory activity on growth (in words): text summary of protocol A. The procedure: as §1, §2, §3, §4, §5, §6
The test system of the next experiment is Candida albicans. The note with it: C. albicans; text summary of protocol A. The method, then: as §1, §2, §3
After allowing the bacterial suspensions to dry on the agar, 10 μL of each test solution, and at various concentrations, were deposited on the surface of the agar flooded with the bacterial suspension. […]
as §6

Another experiment has as its system Enterococcus faecium. To be noted: E. faecium; antibiotic disk. The procedure:
as §1, §2, §3, §4, §5, §6

As to `CN[C@H](CC(C)C)C(=O)N[C@H]1C(=O)N[C@@H](CC(N)=O)C(=O)N[C@H]2C(=O)N[C@H]3C(=O)N[C@H](C(=O)N[C@H](C(=O)O)c4cc(O)cc(O)c4-c4cc3ccc4O)[C@H](O)c3ccc(c(Cl)c3)Oc3cc2cc(c3O[C@@H]2O[C@H](CO)[C@@H](O)[C@H](O)[C@H]2O[C@H]2C[C@](C)(N)[C@H](O)[C@H](C)O2)Oc2ccc(cc2Cl)[C@H]1O` [Vancomycin, reference compound], in the experiment with Staphylococcus aureus (antibiotic disk), the “clarification zone, positive control” value came to 19 mm.
As to N-(18 octadecyl)-n-butyl L-guluronamide, the “inhibitory activity on growth (in words)” value with Pseudomonas aeruginosa and with Escherichia Coli was “neither the N-(12 dodecyl)-n-butyl L-guluronamide nor the N-(18 octadecyl)-n-butyl L-guluronamide (whether in furanose or pyranose form) showed any inhibitory activity” each time. In addition, the “inhibitory effect (in words)” value in the experiment with Staphylococcus aureus (text summary of protocol A) and in the experiment on Candida albicans was “no inhibitory effect” throughout.
With `CC(C)(O/N=C(\C(=O)N[C@@H]1C(=O)N2C(C(=O)[O-])=C(C[n+]3ccccc3)CS[C@H]12)c1csc(N)n1)C(=O)O` [Ceftazidime, reference compound], the “clarification zone, positive control” value in the experiment with Pseudomonas aeruginosa (antibiotic disk) is recorded as 28 mm.
As to N-(12 dodecyl)-n-butyl L-guluronamide, the “inhibitory activity on growth (in words)” value in the experiment on Pseudomonas aeruginosa and in the experiment on Escherichia Coli was “neither the N-(12 dodecyl)-n-butyl L-guluronamide nor the N-(18 octadecyl)-n-butyl L-guluronamide (whether in furanose or pyranose form) showed any inhibitory activity” each time.
For the molecule `CC1(C)S[C@@H]2[C@H](NC(=O)[C@H](N)c3ccccc3)C(=O)N2[C@H]1C(=O)O` [Ampicillin, reference compound], the “clarification zone, positive control” value turned out to be 26 mm in the experiment with Enterococcus faecium and 22 mm in the experiment on Escherichia Coli (antibiotic disk).

The values are drawn from patent publication US20190062362A1, “METHOD FOR OBTAINING SURFACTANT COMPOSITIONS MADE FROM ALKYL-L-GULURONAMIDES” (ÉCOLE NATIONALE SUPÉRIEURE DE CHIMIE, priority 2015, published 2019).
